Experiments:
[1] = target: human prostatic 5-reductase; set-up: method as in Njar et al, 1998; details: human prostatic microsomes; reported previously; ref Njar et al, 1998; cited from earlier work
serum DHT = experiment: Serum DHT (RIA) in SCID mice; format: in vivo, male SCID mice; details: 28 days of treatment, 50 mg kg-1 day-1
Excerpt: (§1) Prostate cancer is the most common malignancy and the second leading cause of cancer-related deaths among men in the US and the UK (Shibata et al, 1998). […] Steroidal 17-hydroxylase/C17,20 -lyase (P450c17) (EC 1.14.99.0) was selected as the target enzyme for inhibition, as this is a key regulatory enzyme of androgen synthesis. P450c17 catal- yses two sequential reactions in the steroid biosynthetic pathway and converts pregnenolone and progesterone to the C-19 andro- gens, dehydroepiandrosterone and androstenedione respectively. This enzyme has an identical amino acid sequence in testicular and adrenal tissues (Chung et al, 1987). […] In order to evaluate the effectiveness of these inhibitors we developed a multi-step system, which utilized the LNCaP human prostate cancer cell line. LNCaP cells remain the only androgen receptor (AR)-positive prostate cancer cell line, that can be readily grown in tissue culture (Horoszewicz et al, 1983). These cells respond to androgens with increased cell proliferation and elevated expression of prostate specific antigen (PSA) (Berns et al, 1993). LNCaP cells at early passages are not only androgen-responsive, but also androgen- dependent (Pousette et al, 1997). This is similar to the situation in most tumours of prostatic cancer patients, which are initially highly responsive and dependent on androgens. […] Therefore, we employed LNCaP cells as a model for evaluating the effectiveness of our new inhibitors of androgen synthesis. In this study the compounds selected for evaluation were two groups of azolyl steroids. […] Here we report on the application of LNCaP-CYP17-transfected cells for determining the inhibitory potencies of the new compounds against the P450c17 enzyme. […] We designed and evaluated two groups of azolyl steroids: 5-non-competitive inhibitors (5NCIs), VN/63-1, VN/85-1, VN/87-1 and their corresponding 4 derivatives (4NCIs), VN/107-1, VN/108-1 and VN/109-1. The human P450c17 gene was transfected into LNCaP human prostate cancer cells, and the resultant LNCaP- CYP17 cells were utilized to evaluate the inhibitory potency of the new azolyl steroids. […] We further evaluated our inhibitors in male severe combined immuno- deficient mice bearing LNCaP tumour xenografts. […] We also utilized wild-type LNCaP prostatic carcinoma cells for evaluating the direct effects of new azolyl steroids on proliferation of these cells in vitro and in vivo. MATERIALS AND METHODS Materials The human prostate cancer cell line LNCaP was obtained from the American Type Culture Collection (Rockville, MD, USA). RPMI- 1640 medium, trypsin-EDTA (0.25%/0.02%), penicillin/strepto- mycin (P/S), geniticin (G418), and LipofectAMINE were from Gibco-BRL (Grand Island, NY, USA). Fetal bovine serum (FBS) was obtained from Summit Biotechnology Inc. (Fort Collins, CO, USA) and steroid-free FBS was prepared as described previously (Klus et al, 1996). Phenol red free IMEM and trypsin-versine were purchased from Biofluids Inc. (Rockville, MD, USA). Chloroform and acetonitrile were purchased from JT Baker, Inc (Phillipsburg, NJ, USA). Hydroxypropyl cellulose (HPC) was purchased from Sigma Chemical Co. (St Louis, MO, USA). The PSA enzyme- linked immunusorbent assay (ELISA) kit was from DSL Inc. (Webster, TX, USA). Matrigel was generously supplied by Dr Hynda Kleinman (NIH, Bethesda, MD, USA). Inhibitors of androgen synthesis: VN/63-1, VN/85-1, VN/87-1, VN/107-1, VN/108-1 and VN/109-1 were synthesized in our labo- ratory as previously described (Njar et al, 1998). […] Metribolone [17-methyl-3 H]-R1881 ([3 H]-R1881: specific activity 86 Ci mmol-1 ) was purchased from Dupont NEN (Boston, MA, USA).

LNCaP cells [2] = experiment: LNCaP cell growth in steroid-free medium; format: cell-based, human; details: high concentrations (2.5 and 5.0 μM), 9 days
Excerpt: Prostate cancer is the most common malignancy and the second leading cause of cancer-related deaths among men in the US and the UK (Shibata et al, 1998). […] Steroidal 17-hydroxylase/C17,20 -lyase (P450c17) (EC 1.14.99.0) was selected as the target enzyme for inhibition, as this is a key regulatory enzyme of androgen synthesis. P450c17 catal- yses two sequential reactions in the steroid biosynthetic pathway and converts pregnenolone and progesterone to the C-19 andro- gens, dehydroepiandrosterone and androstenedione respectively. This enzyme has an identical amino acid sequence in testicular and adrenal tissues (Chung et al, 1987). […] In order to evaluate the effectiveness of these inhibitors we developed a multi-step system, which utilized the LNCaP human prostate cancer cell line. LNCaP cells remain the only androgen receptor (AR)-positive prostate cancer cell line, that can be readily grown in tissue culture (Horoszewicz et al, 1983). These cells respond to androgens with increased cell proliferation and elevated expression of prostate specific antigen (PSA) (Berns et al, 1993). LNCaP cells at early passages are not only androgen-responsive, but also androgen- dependent (Pousette et al, 1997). This is similar to the situation in most tumours of prostatic cancer patients, which are initially highly responsive and dependent on androgens. […] Therefore, we employed LNCaP cells as a model for evaluating the effectiveness of our new inhibitors of androgen synthesis. In this study the compounds selected for evaluation were two groups of azolyl steroids. […] Here we report on the application of LNCaP-CYP17-transfected cells for determining the inhibitory potencies of the new compounds against the P450c17 enzyme. […] We designed and evaluated two groups of azolyl steroids: 5-non-competitive inhibitors (5NCIs), VN/63-1, VN/85-1, VN/87-1 and their corresponding 4 derivatives (4NCIs), VN/107-1, VN/108-1 and VN/109-1. The human P450c17 gene was transfected into LNCaP human prostate cancer cells, and the resultant LNCaP- CYP17 cells were utilized to evaluate the inhibitory potency of the new azolyl steroids. […] We further evaluated our inhibitors in male severe combined immuno- deficient mice bearing LNCaP tumour xenografts. […] We also utilized wild-type LNCaP prostatic carcinoma cells for evaluating the direct effects of new azolyl steroids on proliferation of these cells in vitro and in vivo. MATERIALS AND METHODS Materials The human prostate cancer cell line LNCaP was obtained from the American Type Culture Collection (Rockville, MD, USA). RPMI- 1640 medium, trypsin-EDTA (0.25%/0.02%), penicillin/strepto- mycin (P/S), geniticin (G418), and LipofectAMINE were from Gibco-BRL (Grand Island, NY, USA). […]

LNCaP cells [3] = experiment: Testosterone-stimulated wild-type LNCaP cell growth; format: cell-based, human; details: 0.1 nM testosterone, 9 days; for Effect on testosterone-stimulated cell growth (words): 0.5-5.0 μM compound
Excerpt: as §1

LNCaP cells [4] = experiment: DHT-stimulated wild-type LNCaP cell growth; format: cell-based, human; details: 0.03 nM DHT, 9 days
Excerpt: as §1

LNCaP tumour xenografts = experiment: LNCaP tumour xenograft growth in male SCID mice; format: in vivo; details: 50 mg kg-1 day-1, 28 days; for Effect on tumour growth (words): second experiment
Excerpt: as §1

serum testosterone = experiment: Serum testosterone (RIA) in SCID mice; format: in vivo, male SCID mice; details: 28 days of treatment, 50 mg kg-1 day-1
Excerpt: as §1

[5] = target: T1, human 17α-hydroxylase/C17,20-lyase (P450c17) expressed in LNCaP-CYP17 cells (Homo sapiens, UniProt P05093); experiment: [3H]-acetic acid releasing assay (AARA) with LNCaP-CYP17 cells; format: cell-based; details: LNCaP-CYP17 cells, 7 μM [21-3H]17-OHP5, 16 h; mean ± s.e.m., three experiments
T1 sequence (P05093 9-508 limits assumed): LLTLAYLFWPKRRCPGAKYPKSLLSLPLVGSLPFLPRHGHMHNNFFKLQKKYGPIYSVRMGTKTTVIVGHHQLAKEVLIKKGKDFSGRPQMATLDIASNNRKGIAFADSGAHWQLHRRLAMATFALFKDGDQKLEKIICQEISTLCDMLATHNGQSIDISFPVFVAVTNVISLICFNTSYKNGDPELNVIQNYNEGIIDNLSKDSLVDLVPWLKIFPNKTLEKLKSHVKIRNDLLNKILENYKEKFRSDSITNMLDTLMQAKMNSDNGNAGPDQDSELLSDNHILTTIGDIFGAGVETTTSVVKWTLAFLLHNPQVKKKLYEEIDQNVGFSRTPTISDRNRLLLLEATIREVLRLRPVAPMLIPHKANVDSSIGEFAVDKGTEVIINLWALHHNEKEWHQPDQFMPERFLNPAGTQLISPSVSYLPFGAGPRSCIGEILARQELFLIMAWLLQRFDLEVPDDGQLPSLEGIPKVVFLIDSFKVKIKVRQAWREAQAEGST

serum PSA = experiment: Serum PSA (ELISA) in LNCaP tumour-bearing SCID mice; format: in vivo, male SCID mice; details: first experiment, 50 mg kg-1 day-1, 28 days
Excerpt: Prostate cancer is the most common malignancy and the second leading cause of cancer-related deaths among men in the US and the UK (Shibata et al, 1998). […] Steroidal 17-hydroxylase/C17,20 -lyase (P450c17) (EC 1.14.99.0) was selected as the target enzyme for inhibition, as this is a key regulatory enzyme of androgen synthesis. P450c17 catal- yses two sequential reactions in the steroid biosynthetic pathway and converts pregnenolone and progesterone to the C-19 andro- gens, dehydroepiandrosterone and androstenedione respectively. This enzyme has an identical amino acid sequence in testicular and adrenal tissues (Chung et al, 1987). […] In order to evaluate the effectiveness of these inhibitors we developed a multi-step system, which utilized the LNCaP human prostate cancer cell line. LNCaP cells remain the only androgen receptor (AR)-positive prostate cancer cell line, that can be readily grown in tissue culture (Horoszewicz et al, 1983). These cells respond to androgens with increased cell proliferation and elevated expression of prostate specific antigen (PSA) (Berns et al, 1993). LNCaP cells at early passages are not only androgen-responsive, but also androgen- dependent (Pousette et al, 1997). This is similar to the situation in most tumours of prostatic cancer patients, which are initially highly responsive and dependent on androgens. […] Therefore, we employed LNCaP cells as a model for evaluating the effectiveness of our new inhibitors of androgen synthesis. In this study the compounds selected for evaluation were two groups of azolyl steroids. […] Here we report on the application of LNCaP-CYP17-transfected cells for determining the inhibitory potencies of the new compounds against the P450c17 enzyme. […] We designed and evaluated two groups of azolyl steroids: 5-non-competitive inhibitors (5NCIs), VN/63-1, VN/85-1, VN/87-1 and their corresponding 4 derivatives (4NCIs), VN/107-1, VN/108-1 and VN/109-1. The human P450c17 gene was transfected into LNCaP human prostate cancer cells, and the resultant LNCaP- CYP17 cells were utilized to evaluate the inhibitory potency of the new azolyl steroids. […] We further evaluated our inhibitors in male severe combined immuno- deficient mice bearing LNCaP tumour xenografts. […] We also utilized wild-type LNCaP prostatic carcinoma cells for evaluating the direct effects of new azolyl steroids on proliferation of these cells in vitro and in vivo. MATERIALS AND METHODS Materials The human prostate cancer cell line LNCaP was obtained from the American Type Culture Collection (Rockville, MD, USA). RPMI- 1640 medium, trypsin-EDTA (0.25%/0.02%), penicillin/strepto- mycin (P/S), geniticin (G418), and LipofectAMINE were from Gibco-BRL (Grand Island, NY, USA). Fetal bovine serum (FBS) was obtained from Summit Biotechnology Inc. (Fort Collins, CO, USA) and steroid-free FBS was prepared as described previously (Klus et al, 1996). Phenol red free IMEM and trypsin-versine were purchased from Biofluids Inc. (Rockville, MD, USA). Chloroform and acetonitrile were purchased from JT Baker, Inc (Phillipsburg, NJ, USA). Hydroxypropyl cellulose (HPC) was purchased from Sigma Chemical Co. (St Louis, MO, USA). The PSA enzyme- linked immunusorbent assay (ELISA) kit was from DSL Inc. (Webster, TX, USA). Matrigel was generously supplied by Dr Hynda Kleinman (NIH, Bethesda, MD, USA). […]

[6] = Table 2, first experiment, control 243.8
[7] = Table 3, second experiment, control 239.2
[8] = Table 2, first experiment, control 1.043
[9] = Table 3, second experiment, control 0.205

SMILES | IC50 [1] [nM] | Serum DHT (serum DHT; [6]) [pg/mL] | Serum DHT (serum DHT; [7]) [pg/mL] | Stimulation of LNCaP cell growth in steroid-free media (LNCaP cells [2]) | Effect on testosterone-stimulated cell growth (words) (LNCaP cells [3]) | Effect on testosterone-stimulated cell growth (words) (LNCaP cells [3]; listed as ketoconazole) | Stimulation of cell growth compared to DHT-treated cells (LNCaP cells [4]) | Effect on tumour growth (words) (LNCaP tumour xenografts) | Serum Testosterone (serum testosterone; [8]) [ng/mL] | Serum Testosterone (serum testosterone; [9]) [ng/mL] | IC50 [5] [nM] | Concentration that completely inhibited the growth stimulatory effect of testosterone (LNCaP cells [3]) [µM] | Concentration that completely blocked DHT stimulation (LNCaP cells [4]) [µM] | Serum PSA levels versus control (serum PSA) | Reduction of tumour weights compared to vehicle-treated mice (LNCaP tumour xenografts; first experiment) [%]
CC(=O)N1CCN(c2ccc(OCC3COC(Cn4ccnc4)(c4ccc(Cl)cc4Cl)O3)cc2)CC1 (stereo not shown) [Ketoconazole, reference compound] | > 5000 | 224.3 | 218.0 | 30-40% | stimulate cell proliferation at low concentrations | biphasic growth responses | 10-20% | Neither VN/63-1, VN/107 nor ketoconazole had any appreciable effects | 1.526 | 0.298 | – | – | – | – | –
C[C@]12CC[C@H](O)CC1=CC[C@@H]1[C@@H]2CC[C@]2(C)C(n3cncn3)=CC[C@@H]12 [VN/63-1] | > 5000 | – | 189.7 | – | – | – | – | Neither VN/63-1, VN/107 nor ketoconazole had any appreciable effects | – | 0.146 | 47.1 | 1.0 | 1.0 | – | –
C[C@]12CC[C@H](O)CC1=CC[C@@H]1[C@@H]2CC[C@]2(C)C(n3ccnc3)=CC[C@@H]12 [VN/85-1] | > 5000 | 143.7 | – | – | – | – | – | – | 0.141 | – | 1.25 ± 0.44 | 1.0 | 1.0 | significantly lower | 27
